In PMC7824787, “Design, Synthesis and In Vitro Investigation of Novel Basic Celastrol Carboxamides as Bio-Inspired Leishmanicidal Agents Endowed with Inhibitory Activity against Leishmania Hsp90” (Biomolecules, 2021):
Like-named read-outs stand apart in the source and are kept apart here.

Experiments:
[1] = system: L. infantum promastigotes; experiment: Antileishmanial activity on L. infantum promastigotes (MTT); assay type: cell-based
Experimental: (§1) Promastigote stage of L. infantum (MHOM/TN/80/IPT1, kindly provided by Dr. M. Gramiccia and Dr. T. Di Muccio, ISS, Roma) and L. tropica (MHOM/SY/2012/ISS3130) were cultured in RPMI 1640 medium (EuroClone) supplemented with 15% heat-inactivated fetal calf serum (EuroClone, Milan, Italy), 20 mM HEPES, and 2 mM L-glutamine at 23 °C. The MTT (3-[4.5-dimethylthiazol-2-yl]-2.5-diphenyltetrazolium bromide) method was used to estimate the 50% inhibitory concentration (IC50), with some modifications. Compounds were dissolved in DMSO and then diluted with medium to achieve the required concentrations. Test compounds were placed in 96 wells round bottom microplates and seven serial dilutions made. Amphotericin B was used as the reference antileishmanial drug. Parasites were diluted in complete medium to 5 × 10^6 parasites/mL and 100 μL of the suspension was seeded into the plates and incubated at 23 °C for 72 h. Then 20 μL of MTT solution (5 mg/mL) was added into each well, after 3 h the plates were centrifuged, the supernatants discarded and the resulting pellets dissolved in 100 μL of lysing buffer consisting of 20% (w/v) of a solution of SDS (Sigma), 40% of N,N-dimethylformamide (Merck) in H2O. The absorbance of the obtained solutions was measured at a wavelength of 550 nm with a reference at 650 nm with a microplate spectrophotometer (Synergy 4-Biotek, Milan, Italy) and analyzed with the Gen5® software for data processing.
(§2) The results are expressed as IC50, the dose of compound that is necessary to inhibit cell growth by 50%; each IC50 value is the mean ± standard deviation of at least three separate experiments performed in duplicate.

L. tropica promastigotes = experiment: Antileishmanial activity on L. tropica promastigotes (MTT); assay type: cell-based
Experimental: as §1, §2

HMEC-1 = experiment: Cytotoxicity on HMEC-1 (MTT); assay type: cell-based, human; details: Homo sapiens, read-out: Healthy Cell Lines IC50, HMEC-1
Experimental: (§3) Cytotoxicity was evaluated on human microvascular endothelial cells (HMEC-1, provided by the Centers for Disease Control, Atlanta, GA, USA), on immortalized mouse C57Bl/6 bone marrow derived macrophages (BMDM) from wild type lineage (generated in the laboratories of Drs. Douglas Golenbock and Kate Fitzgerald, University of Massachusetts, Worcester, MA, USA) and on a human acute monocytic leukaemia cell line (THP-1).
(§4) HMEC-1 were maintained in MCDB 131 medium (Invitrogen, Milan, Italy) supplemented with 10% fetal calf serum (HyClone), 10 ng/mL of epidermal growth factor, 1 μg/mL of hydrocortisone, 2 mM glutamine and 20 mM HEPES buffer, at 37 °C in 5% CO2. BMDM were maintained in DMEM (Euroclone) medium supplemented with 10% fetal bovine serum (HyClone, Celbio, Milan, Italy), 2 mM glutamine, and 25 mM of HEPES buffer solution (Euroclone). THP-1 were maintained in RPMI supplemented with 10% heat-inactivated FCS, 50 µM 2-mercaptoethanol, 10 µM sodium pyruvate, 20 mM HEPES, and 2 mM glutamine. In order to achieve differentiation into macrophages, cells were treated with 10 ng/mL phorbol myristate acetate (PMA) for 72 h.
(§5) For the cytotoxicity assay, cells were seeded in 96 well flat bottom tissue culture clusters (Costar, New York, NY, USA) at the following concentrations: HMEC 10^5 cell/mL, BMDM at 10^6 cell/mL, THP1 at 5 × 10^5 cell/mL. After 24 h, cells were treated with serial dilutions of test compounds in a final volume of 200 µL/well. Cell proliferation was evaluated after 72 h using the MTT assay.
(§6) The absorbances were measured with a microplate spectrophotometer (Synergy 4-Biotek) at a test wavelength of 550 nm and a reference wavelength of 650 nm. The results are expressed as IC50 as the concentration inhibiting 50% of cell growth. Each IC50 value is the mean and standard deviation of at least three separate experiments performed in duplicate.

THP-1 = experiment: Cytotoxicity on THP-1 (MTT); assay type: cell-based, human; details: Homo sapiens, THP-1; PMA-differentiated, 72 h, MTT; read-out: Healthy Cell Lines IC50, THP-1
Experimental: as §3, §4, §5, §6

BMDM = experiment: Cytotoxicity on BMDM (MTT); assay type: cell-based, mouse; details: Mus musculus, BMDM; 72 h, MTT; read-out: Healthy Cell Lines IC50, BMDM
Experimental: as §3, §4, §5, §6

L. infantum amastigotes = experiment: Antileishmanial activity on intramacrophage amastigotes of L. infantum; assay type: cell-based, Leishmania infantum
Experimental: Cell monolayers were then washed and incubated in the presence of test compounds for 72 h. Slides were fixed with methanol and stained with Giemsa. The percentage of infected macrophages in treated and non-treated cells was determined by light microscopy.

LbHsp90 = LbHsp90 (Leishmania braziliensis, UniProt A4HL70); experiment: In vitro inhibition of the ATPase activity of LbHsp90 (Malachite Green Phosphate Assay); assay type: biochemical; details: 7 μM LbHsp90, 27 °C, 60 min
LbHsp90, sequence (A4HL70 entry or part of it): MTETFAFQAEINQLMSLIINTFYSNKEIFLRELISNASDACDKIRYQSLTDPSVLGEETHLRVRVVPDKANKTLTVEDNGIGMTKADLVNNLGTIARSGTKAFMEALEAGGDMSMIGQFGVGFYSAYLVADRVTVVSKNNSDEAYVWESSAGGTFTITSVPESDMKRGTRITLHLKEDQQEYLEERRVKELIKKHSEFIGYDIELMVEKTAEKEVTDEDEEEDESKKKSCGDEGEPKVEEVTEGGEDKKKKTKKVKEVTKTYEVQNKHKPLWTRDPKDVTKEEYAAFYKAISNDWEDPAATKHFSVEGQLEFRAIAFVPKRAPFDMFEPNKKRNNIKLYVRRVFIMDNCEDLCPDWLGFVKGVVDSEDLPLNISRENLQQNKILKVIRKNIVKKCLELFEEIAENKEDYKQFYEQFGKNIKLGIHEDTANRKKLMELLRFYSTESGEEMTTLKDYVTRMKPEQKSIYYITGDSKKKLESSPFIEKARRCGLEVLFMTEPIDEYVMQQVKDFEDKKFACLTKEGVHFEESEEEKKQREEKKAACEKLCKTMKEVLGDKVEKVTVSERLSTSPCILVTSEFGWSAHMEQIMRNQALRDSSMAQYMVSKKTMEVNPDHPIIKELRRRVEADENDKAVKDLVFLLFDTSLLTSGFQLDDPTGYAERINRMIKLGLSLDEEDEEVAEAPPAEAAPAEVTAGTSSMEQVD
Description: To evaluate in vitro the modulatory activity of CE, PR and CE caboxamides, a full-length recombinant Hsp90 from L. braziliensis (LbHsp90) was produced in E. coli BL21 DE3 harboring the pET28a_LbHsp90 coding for the C-terminal His-tagged target chaperone (genbank number: XP_001567804.1, full sequence is reported in Appendix B). Pratically, the plasmid pET28a_LbHsp90, kindly donated by professor J.C. Borges, was transformed in E. coli BL21 DE3 using the TransformAid Bacterial Transformation Kit (Thermo Fisher, Waltham, MA, USA). Subsequently, the obtained transformants were grown overnight in LB medium containing 30 μg mL^−1 kanamycin (LBkan30) and then inoculated in 1 L SB kan30 medium (Yeast extract 30 g L^−1, Tryptone 20 g L^−1, NaCl 10 g L^−1) at 37 °C and 220 rpm. When the OD600 reached 0.5–1, gene expression was induced by the addition of 2 mL of 1 M IPTG solution in water and the culture was shifted at 30 °C for 24 h. After cell harvesting by centrifugation (5000 rpm for 30 min), the cell pellet was resuspended in 20 mL of wash buffer (20 mM HEPES buffer, pH 7.0, 500 mM NaCl, 20 mM imidazole) and recombinant E. coli BL21DE3 cells were disrupted by ultrasonication. LbHsp90 was subsequently purified using a Nickel Sepharose 6 Fast Flow agarose resin (Ni-NTA) (GE Healthcare, Milan, Italy) as follows. Soluble protein fraction was separated from cell debris by centrifugation (10,000 rpm for 30min) after cell ultrasonication, and clear lysates were incubated with the Ni-NTA resin for 90 min at 4 °C under mild shaking and loaded onto a glass column (10 × 110 mm). The resin was then washed with 10mL of wash buffer and His-tagged LbHsp90 was eluted using a 3 step gradient (10 mL washing buffer containing 100, 200, and 300 mM imidazole, respectively) and dialyzed against 20 mM HEPES buffer (20 mM, pH 7.5), at 4 °C overnight. The protein content was measured using the Bio-Rad Protein Assay (Hercules, CA, USA) according to the Bradford method and the protein purity was verified by SDS-PAGE analysis (10% T, 2.6% C). It is worth noting that to avoid interferences with the assays described below, proteins were purified and conserved in HEPES buffer (20 mM, pH 7.5) in place of the standard PB-buffer. Reported data are the mean of two experiments run in duplicate.
Modulatory activity toward the ATPase cycle of LbHsp90 was determined using a Malachite Green Phosphate Assay Kit (Catalog Number MAK307, Sigma-Aldrich®, St. Louis, MO, USA). Analyses were run in a 96-well plate directly following the quantitative formation of a green complex between Malachite Green, molybdate, and free orthophosphate (Pi) produced by ATP hydrolysis catalyzed by the chaperone. Color formation from the reaction was measured on a plate reader at 620 nm. Briefly, the IC50 of CE and its derivatives were extrapolated from a set of dose-response curves obtained by calculating the amount of Pi produced by LbHsp90 in the presence of different compounds concentrations.
Reactions were run in HEPES buffer (20 mM, pH 7.5) containing 3 mM MgCl2 and 50 mM KCl in the presence of different compounds concentrations ([…]), LbHsp90 (7 μM) and ATP (25 mM) at 27 °C for 60 min. OD620 was measured 30 min after Malachite Green reactants addition.
LbHsp90 native activity was measured by conducting the reaction in the presence of just LbHsp90 and ATP and extrapolating the concentration of Pi obtained.
Three sets of control experiments, (1) ATP background hydrolysis, (2) compounds-related interferences and (3) protein-related background coloration, were run as follow: • (1) ATP (25 mM) incubated at 27 °C for 60 min • (2) Compounds (different concentrations) incubated with ATP (25 mM) at 27 °C for 60 min • (3) LbHsp90 (7 μM) at 27 °C for 60 min
The in vitro performances of CE, PR and the carboxamides 1–11 (Figure 4) as potential inhibitors of the Leishmania braziliensis Hsp90 were investigated using Sigma-Aldrich® Malachite Green Phosphate Assay Kit. […]

Row | SMILES | IC50 ([1]; Leishmania infantum, 72 h, 23 °C, MTT, read-out: Leishmania Promastigotes IC50, L. infantum) [nM] | IC50 (L. tropica promastigotes; Leishmania tropica, 72 h, 23 °C, MTT, read-out: Leishmania Promastigotes IC50, L. tropica) [nM] | IC50 (HMEC-1; HMEC-1, 72 h, MTT) [nM] | IC50 (THP-1) [nM] | IC50 (BMDM) [nM] | IC50 (L. infantum amastigotes; Leishmania infantum, infected THP-1 macrophages, 72 h) [nM] | S.I. (selectivity index) (L. infantum amastigotes; ratio IC50 on THP-1 cell line / IC50 toward L. infantum amastigotes) | IC50 ([1]; Leishmania infantum; 72 h, 23 °C, MTT; read-out: Leishmania Promastigotes IC50, L. infantum) [nM] | IC50 (L. tropica promastigotes; Leishmania tropica; 72 h, 23 °C, MTT; read-out: Leishmania Promastigotes IC50, L. tropica) [nM] | IC50 (HMEC-1; HMEC-1, 72 h) [nM] | IC50 (LbHsp90) [nM] | melting point [°C]
1 | C[C@@H]1[C@H](O)[C@@H](C)/C=C/C=C/C=C/C=C/C=C/C=C/C=C/[C@H](O[C@@H]2O[C@H](C)[C@@H](O)[C@H](N)[C@@H]2O)C[C@@H]2O[C@](O)(C[C@@H](O)C[C@@H](O)[C@H](O)CC[C@@H](O)C[C@@H](O)CC(=O)O[C@H]1C)C[C@H](O)[C@H]2C(=O)O [AMP, amphotericin B, reference compound] | 160 ± 50 | 170 ± 20 | > 20000 | > 20000 | > 20000 | 180 ± 30 | >109 | – | – | – | – | –
2 | C=CCSSCCNC(=O)[C@]1(C)CC[C@]2(C)CC[C@]3(C)C4=CC=C5C(=CC(=O)C(O)=C5C)[C@]4(C)CC[C@@]3(C)[C@@H]2C1 [compound 10, (2R,4aS,6aS,12bR,14aS,14bR)-N-(2-(allyldisulfanyl)ethyl)-10-hydroxy-2,4a,6a,9,12b,14a-hexamethyl-11-oxo-1,2,3,4,4a,5,6,6a,11,12b,13,14,14a,14b-tetradecahydropicene-2-carboxamide] | – | – | – | 930 ± 270 | 2860 ± 170 | – | – | 460 ± 120 | 340 ± 210 | 170 ± 40 | > 125000 | 173.7 to 175.1
